Values quoted from earlier work, collected in patent US20150265683A1, “Stable aqueous composition comprising human insulin or an analogue or derivative thereof” (WOCKHARDT LIMITED, priority 2012, published 2015).

Settings: for duration of action: after administration

Row | Substance | onset of action (begins to work) after administration | duration of action | onset of action (starts working) after administration
1 | Regular insulin: Short-acting insulin | ≤ 30 min | 5 to 8 h | 
2 | Asp^B28 human insulin [insulin aspart] | 5 to 15 min | 3 to 4 h | 
3 | Isophane Insulin: Intermediate-acting insulin |  | 16 to 24 h | 1 to 3 h
4 | Insulin detemir |  |  | 1 to 2 h
5 | Lys^B28 Pro^B29 human insulin [insulin lispro] | 5 to 15 min | 3 to 4 h | 
6 | Gly(A21)-Arg(B31)-Arg(B32)-human insulin [Insulin glargine] |  |  | 1 to 2 h
